The record followed here is ChEMBL document CHEMBL5442334, “ASAP - In vitro safety pharmacology profile” (2024).

Data set [1] deals with Beta-1 adrenergic receptor (Homo sapiens) (UniProt P08588). The experiment in a line: SafetyScreen: beta1 Human Adrenoceptor GPCR Binding Agonist Radioligand LeadHunter Assay, catalogue number: 18. The following applies: Test compound concentration 10.0 uM.
Data set [2] deals with Cannabinoid receptor 1 (Homo sapiens) (UniProt P21554). Kind of data set: SafetyScreen: CB1 Human Cannabinoid GPCR Binding Agonist Radioligand LeadHunter Assay, catalogue number: 4708. The following applies: Test compound concentration 10.0 uM.
In data set [3] the target is T1, Cholecystokinin receptor type A (Homo sapiens) (UniProt P32238).
T1 sequence (whole entry): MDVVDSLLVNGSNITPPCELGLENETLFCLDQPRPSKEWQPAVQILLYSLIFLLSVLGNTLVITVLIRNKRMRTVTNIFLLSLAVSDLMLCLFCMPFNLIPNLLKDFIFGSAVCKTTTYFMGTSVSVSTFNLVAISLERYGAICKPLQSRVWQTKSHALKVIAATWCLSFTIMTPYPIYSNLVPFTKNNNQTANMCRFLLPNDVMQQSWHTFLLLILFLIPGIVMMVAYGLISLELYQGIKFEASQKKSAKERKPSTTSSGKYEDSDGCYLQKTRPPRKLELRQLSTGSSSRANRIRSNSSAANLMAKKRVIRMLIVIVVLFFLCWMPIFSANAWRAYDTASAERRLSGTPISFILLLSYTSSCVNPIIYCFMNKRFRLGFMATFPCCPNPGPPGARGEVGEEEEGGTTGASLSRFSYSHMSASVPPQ
Kind of data set: SafetyScreen: CCK1 (CCKA) Human Cholecystokinin GPCR Binding Agonist Radioligand LeadHunter Assay, catalogue number: 39. The following applies: Test compound concentration 10.0 uM.

Data set [4] concerns the target D(1A) dopamine receptor (Homo sapiens) (UniProt P21728). The experiment in a line: SafetyScreen: D1 Human Dopamine GPCR Binding Antagonist Radioligand LeadHunter Assay, catalogue number: 44. Particulars: Test compound concentration 10.0 uM.
Data set [5] addresses D(2) dopamine receptor (Homo sapiens) (UniProt P14416). The experiment in a line: SafetyScreen: D2S Human Dopamine GPCR Binding Agonist Radioligand LeadHunter Assay, catalogue number: 1322. The following applies: Test compound concentration 10.0 uM.
The target of data set [6] is Histamine H1 receptor (Homo sapiens) (UniProt P35367). Kind of data set: SafetyScreen: H1 Human Histamine GPCR Binding Antagonist Radioligand LeadHunter Assay, catalogue number: 870. Particulars: Test compound concentration 10.0 uM.
For data set [7], the target named is T2, Muscarinic acetylcholine receptor M1 (Homo sapiens) (UniProt P11229).
T2 sequence (whole entry): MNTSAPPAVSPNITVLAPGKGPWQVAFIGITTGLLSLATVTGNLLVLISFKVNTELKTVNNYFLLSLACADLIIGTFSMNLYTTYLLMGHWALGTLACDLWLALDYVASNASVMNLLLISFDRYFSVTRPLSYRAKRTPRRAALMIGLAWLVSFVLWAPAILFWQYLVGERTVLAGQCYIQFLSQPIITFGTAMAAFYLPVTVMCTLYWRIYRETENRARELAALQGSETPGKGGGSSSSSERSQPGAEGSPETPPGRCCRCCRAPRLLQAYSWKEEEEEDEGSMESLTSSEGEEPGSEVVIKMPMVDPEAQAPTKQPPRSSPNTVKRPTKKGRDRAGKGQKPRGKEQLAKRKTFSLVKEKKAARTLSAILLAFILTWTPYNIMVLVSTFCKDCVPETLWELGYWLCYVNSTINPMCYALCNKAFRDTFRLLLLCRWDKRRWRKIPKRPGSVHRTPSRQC
The experiment in a line: SafetyScreen: M1 Human Acetylcholine (Muscarinic) GPCR Binding Antagonist Radioligand LeadHunter Assay, catalogue number: 91. The following applies: Test compound concentration 10.0 uM.

Data set [8] has as its target Mu-type opioid receptor (Homo sapiens) (UniProt P35372). The experiment in a line: SafetyScreen: mu (MOP) Human Opioid GPCR Binding Agonist Radioligand LeadHunter Assay, catalogue number: 118. The following applies: Test compound concentration 10.0 uM.
The target in data set [9] is T3, 5-hydroxytryptamine receptor 1A (Homo sapiens) (UniProt P08908).
T3 sequence (whole entry): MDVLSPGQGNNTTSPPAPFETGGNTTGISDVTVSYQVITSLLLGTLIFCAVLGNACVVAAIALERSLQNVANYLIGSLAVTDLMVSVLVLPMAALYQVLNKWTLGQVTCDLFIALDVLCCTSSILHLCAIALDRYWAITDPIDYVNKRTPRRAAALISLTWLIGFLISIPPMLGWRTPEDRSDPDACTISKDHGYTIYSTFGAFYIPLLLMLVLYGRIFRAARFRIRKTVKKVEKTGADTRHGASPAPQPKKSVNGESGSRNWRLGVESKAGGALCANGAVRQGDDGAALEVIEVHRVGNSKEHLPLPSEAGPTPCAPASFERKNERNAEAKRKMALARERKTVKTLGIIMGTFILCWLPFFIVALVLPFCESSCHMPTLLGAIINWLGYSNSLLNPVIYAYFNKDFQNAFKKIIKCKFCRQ
Kind of data set: SafetyScreen: 5-HT1A Human Serotonin GPCR Binding Agonist Radioligand LeadHunter Assay, catalogue number: 131. The following applies: Test compound concentration 10.0 uM.

Data set [10] addresses Voltage-gated L-type calcium channel (Rattus norvegicus, UniProt P22002+Q02485+P27732). Kind of data set: SafetyScreen: Cav1.2 (L-type) Rat Calcium Ion Channel Binding (Dihydropyridine Site) LeadHunter Assay, catalogue number: 161. Format: protein assay. The following applies: at 10 µM, test compound concentration 10 uM.
For data set [11], the target named is T4, Prostaglandin G/H synthase 2 (Homo sapiens) (UniProt P35354).
T4 sequence (whole entry): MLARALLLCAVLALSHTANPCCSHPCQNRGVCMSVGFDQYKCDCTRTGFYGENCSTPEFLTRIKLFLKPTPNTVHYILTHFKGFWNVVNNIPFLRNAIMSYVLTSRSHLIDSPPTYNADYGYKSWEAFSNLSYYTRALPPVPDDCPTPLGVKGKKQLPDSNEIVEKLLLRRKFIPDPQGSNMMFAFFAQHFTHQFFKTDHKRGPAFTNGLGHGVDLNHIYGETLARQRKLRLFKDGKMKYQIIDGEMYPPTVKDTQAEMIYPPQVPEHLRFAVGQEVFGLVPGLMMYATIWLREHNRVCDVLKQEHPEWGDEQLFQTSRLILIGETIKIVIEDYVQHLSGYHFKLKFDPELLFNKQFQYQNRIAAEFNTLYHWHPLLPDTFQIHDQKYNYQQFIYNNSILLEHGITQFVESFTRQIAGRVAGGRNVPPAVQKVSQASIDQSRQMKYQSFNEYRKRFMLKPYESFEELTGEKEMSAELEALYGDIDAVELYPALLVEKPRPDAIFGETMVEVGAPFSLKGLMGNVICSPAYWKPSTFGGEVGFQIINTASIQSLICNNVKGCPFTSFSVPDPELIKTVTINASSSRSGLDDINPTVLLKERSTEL
Kind of data set: SafetyScreen: COX2 Human Cyclooxygenase Enzymatic LeadHunter Assay, catalogue number: 4186. The format is functional. The following applies: Test compound concentration 10.0 uM.

The target of data set [12] is cGMP-inhibited 3',5'-cyclic phosphodiesterase 3A (Homo sapiens) (UniProt Q14432). The experiment in a line: SafetyScreen: PDE3A Human Phosphodiesterase Enzymatic LeadHunter Assay, catalogue number: 4072. Particulars: Test compound concentration 10.0 uM. Format: functional.
For data set [13], the target named is 3',5'-cyclic-AMP phosphodiesterase 4D (Homo sapiens) (UniProt Q08499). The experiment in a line: SafetyScreen: PDE4D2 Human Phosphodiesterase Enzymatic LeadHunter Assay, catalogue number: 4077. The format is functional. Particulars: Test compound concentration 10.0 uM.
Chain of 3',5'-cyclic-AMP phosphodiesterase 4D (Homo sapiens) (Q08499 whole entry): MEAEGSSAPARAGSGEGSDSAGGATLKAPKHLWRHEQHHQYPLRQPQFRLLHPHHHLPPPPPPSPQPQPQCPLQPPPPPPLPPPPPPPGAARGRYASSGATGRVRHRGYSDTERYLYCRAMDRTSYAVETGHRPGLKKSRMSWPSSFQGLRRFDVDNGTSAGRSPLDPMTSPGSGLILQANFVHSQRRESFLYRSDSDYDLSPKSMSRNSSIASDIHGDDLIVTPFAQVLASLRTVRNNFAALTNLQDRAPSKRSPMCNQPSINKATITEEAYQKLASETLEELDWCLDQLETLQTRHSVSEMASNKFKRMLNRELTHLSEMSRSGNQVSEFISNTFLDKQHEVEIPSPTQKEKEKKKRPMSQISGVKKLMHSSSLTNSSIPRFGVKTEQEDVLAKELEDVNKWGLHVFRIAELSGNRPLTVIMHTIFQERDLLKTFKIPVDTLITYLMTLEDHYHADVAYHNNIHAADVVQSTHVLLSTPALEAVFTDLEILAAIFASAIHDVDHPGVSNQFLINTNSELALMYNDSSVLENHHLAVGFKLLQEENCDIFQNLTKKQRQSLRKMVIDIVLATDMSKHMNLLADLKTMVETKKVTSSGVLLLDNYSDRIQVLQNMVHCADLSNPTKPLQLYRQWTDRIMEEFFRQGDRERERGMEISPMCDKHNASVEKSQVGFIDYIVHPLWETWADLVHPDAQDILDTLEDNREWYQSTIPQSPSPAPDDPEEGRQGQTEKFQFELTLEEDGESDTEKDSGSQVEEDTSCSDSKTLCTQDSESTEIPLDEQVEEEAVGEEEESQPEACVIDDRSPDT

Chain of Cannabinoid receptor 1 (Homo sapiens) (P21554 whole entry): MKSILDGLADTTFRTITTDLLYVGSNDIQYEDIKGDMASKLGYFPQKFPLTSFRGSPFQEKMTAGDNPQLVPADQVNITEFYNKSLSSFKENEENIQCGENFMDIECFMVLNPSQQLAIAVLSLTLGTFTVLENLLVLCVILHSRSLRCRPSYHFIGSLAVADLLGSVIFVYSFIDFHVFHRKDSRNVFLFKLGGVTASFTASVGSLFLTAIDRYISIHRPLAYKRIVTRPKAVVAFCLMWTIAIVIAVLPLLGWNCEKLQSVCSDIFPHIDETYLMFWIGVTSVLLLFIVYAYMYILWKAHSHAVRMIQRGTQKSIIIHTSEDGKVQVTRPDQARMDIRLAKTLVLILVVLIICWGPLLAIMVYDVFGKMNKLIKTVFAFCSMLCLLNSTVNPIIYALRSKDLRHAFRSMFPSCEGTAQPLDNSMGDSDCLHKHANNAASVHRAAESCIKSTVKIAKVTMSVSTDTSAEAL
Chain of D(1A) dopamine receptor (Homo sapiens) (P21728 whole entry): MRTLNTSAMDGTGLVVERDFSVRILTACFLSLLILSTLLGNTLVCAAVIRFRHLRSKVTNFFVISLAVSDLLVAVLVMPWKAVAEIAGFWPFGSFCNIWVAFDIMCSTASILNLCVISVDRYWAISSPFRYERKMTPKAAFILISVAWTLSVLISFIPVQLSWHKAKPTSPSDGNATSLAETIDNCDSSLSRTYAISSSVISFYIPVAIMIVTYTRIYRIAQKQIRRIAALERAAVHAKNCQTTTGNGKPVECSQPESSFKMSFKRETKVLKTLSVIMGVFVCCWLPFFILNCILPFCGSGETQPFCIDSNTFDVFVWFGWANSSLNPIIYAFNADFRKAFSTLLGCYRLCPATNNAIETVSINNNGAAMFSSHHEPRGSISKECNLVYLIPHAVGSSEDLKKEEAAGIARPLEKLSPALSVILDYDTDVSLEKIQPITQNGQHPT
Chain of Histamine H1 receptor (Homo sapiens) (P35367 whole entry): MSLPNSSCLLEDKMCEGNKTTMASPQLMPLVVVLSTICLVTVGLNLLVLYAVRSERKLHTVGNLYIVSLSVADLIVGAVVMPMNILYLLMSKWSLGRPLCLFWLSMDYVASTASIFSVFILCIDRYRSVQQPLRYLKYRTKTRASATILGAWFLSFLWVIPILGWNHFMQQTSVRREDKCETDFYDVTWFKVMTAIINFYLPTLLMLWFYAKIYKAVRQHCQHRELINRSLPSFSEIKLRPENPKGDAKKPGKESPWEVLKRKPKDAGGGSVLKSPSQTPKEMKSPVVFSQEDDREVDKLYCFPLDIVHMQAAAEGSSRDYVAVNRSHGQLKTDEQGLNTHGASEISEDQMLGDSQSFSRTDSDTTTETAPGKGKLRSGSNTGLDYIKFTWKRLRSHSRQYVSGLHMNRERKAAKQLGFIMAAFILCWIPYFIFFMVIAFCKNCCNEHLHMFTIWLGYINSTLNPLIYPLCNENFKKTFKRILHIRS
Chain of Mu-type opioid receptor (Homo sapiens) (P35372 whole entry): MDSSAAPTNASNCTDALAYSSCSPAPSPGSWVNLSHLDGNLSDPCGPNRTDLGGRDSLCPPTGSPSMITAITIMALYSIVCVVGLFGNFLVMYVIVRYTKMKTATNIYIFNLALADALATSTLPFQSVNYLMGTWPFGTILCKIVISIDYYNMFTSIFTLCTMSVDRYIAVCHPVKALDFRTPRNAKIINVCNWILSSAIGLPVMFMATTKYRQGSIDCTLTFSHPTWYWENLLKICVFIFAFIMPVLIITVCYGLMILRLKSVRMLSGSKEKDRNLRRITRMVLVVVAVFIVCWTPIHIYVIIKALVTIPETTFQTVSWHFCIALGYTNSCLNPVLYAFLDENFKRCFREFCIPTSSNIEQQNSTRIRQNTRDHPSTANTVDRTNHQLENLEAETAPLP
Chain of D(2) dopamine receptor (Homo sapiens) (P14416 whole entry): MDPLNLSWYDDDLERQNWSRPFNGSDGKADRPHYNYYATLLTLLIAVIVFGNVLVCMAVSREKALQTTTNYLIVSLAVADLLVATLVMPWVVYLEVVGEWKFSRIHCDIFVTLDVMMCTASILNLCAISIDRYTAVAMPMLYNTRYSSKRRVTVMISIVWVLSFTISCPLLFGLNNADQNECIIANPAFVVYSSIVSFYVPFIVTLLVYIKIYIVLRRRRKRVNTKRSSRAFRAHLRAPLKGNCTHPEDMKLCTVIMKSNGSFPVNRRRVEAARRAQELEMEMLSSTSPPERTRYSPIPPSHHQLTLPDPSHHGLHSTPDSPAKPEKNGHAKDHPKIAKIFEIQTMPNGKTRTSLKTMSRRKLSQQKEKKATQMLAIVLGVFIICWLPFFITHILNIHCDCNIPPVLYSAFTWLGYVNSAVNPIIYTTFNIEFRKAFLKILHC
Chain of cGMP-inhibited 3',5'-cyclic phosphodiesterase 3A (Homo sapiens) (Q14432 whole entry): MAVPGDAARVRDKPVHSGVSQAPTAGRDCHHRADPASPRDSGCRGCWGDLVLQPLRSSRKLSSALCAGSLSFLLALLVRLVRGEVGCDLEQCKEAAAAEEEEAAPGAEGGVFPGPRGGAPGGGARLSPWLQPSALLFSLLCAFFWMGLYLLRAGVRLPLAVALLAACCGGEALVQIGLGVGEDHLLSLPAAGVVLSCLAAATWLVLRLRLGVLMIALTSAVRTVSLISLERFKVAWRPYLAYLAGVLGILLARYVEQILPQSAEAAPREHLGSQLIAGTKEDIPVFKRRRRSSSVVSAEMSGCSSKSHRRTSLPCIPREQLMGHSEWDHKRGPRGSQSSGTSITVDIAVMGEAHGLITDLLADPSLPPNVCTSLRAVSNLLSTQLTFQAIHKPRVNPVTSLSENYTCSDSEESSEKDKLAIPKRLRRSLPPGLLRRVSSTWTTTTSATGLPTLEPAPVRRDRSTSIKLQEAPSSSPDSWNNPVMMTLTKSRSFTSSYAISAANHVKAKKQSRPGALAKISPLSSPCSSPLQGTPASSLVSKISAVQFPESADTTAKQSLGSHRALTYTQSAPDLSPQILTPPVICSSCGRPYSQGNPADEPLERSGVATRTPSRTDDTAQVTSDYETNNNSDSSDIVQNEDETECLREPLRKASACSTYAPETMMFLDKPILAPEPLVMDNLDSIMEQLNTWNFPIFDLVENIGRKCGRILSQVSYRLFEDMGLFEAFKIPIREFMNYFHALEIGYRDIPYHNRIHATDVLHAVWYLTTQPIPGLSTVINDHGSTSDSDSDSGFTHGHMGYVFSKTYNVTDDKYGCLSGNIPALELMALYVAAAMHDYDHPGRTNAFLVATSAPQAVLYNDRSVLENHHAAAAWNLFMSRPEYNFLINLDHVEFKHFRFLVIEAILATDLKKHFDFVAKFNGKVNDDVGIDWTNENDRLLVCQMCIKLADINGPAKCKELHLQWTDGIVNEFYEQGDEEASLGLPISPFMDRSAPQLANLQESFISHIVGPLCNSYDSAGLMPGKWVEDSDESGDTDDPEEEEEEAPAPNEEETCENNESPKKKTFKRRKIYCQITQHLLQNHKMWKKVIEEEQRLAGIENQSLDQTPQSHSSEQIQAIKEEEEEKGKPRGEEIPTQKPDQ
Chain of Beta-1 adrenergic receptor (Homo sapiens) (P08588 whole entry, looked up): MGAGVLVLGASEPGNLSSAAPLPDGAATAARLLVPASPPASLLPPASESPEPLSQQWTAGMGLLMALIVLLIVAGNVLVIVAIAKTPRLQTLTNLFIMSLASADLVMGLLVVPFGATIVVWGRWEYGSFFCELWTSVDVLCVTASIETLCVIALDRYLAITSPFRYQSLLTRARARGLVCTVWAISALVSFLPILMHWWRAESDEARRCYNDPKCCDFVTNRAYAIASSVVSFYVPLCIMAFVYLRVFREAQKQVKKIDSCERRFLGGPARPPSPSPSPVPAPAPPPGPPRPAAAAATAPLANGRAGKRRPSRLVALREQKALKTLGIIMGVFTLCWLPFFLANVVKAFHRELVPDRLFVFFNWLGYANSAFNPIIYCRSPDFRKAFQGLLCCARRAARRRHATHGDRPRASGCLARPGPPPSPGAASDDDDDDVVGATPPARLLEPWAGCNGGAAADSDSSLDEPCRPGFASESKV

By inhibition is commonly meant the change of the read-out against control, counted positive when it falls. In general, Inhibition refers to the relative decrease from the control value, in per cent. Consider `CC(C)[C@@H](Nc1ncnc2[nH]c(C(=O)N[C@@H]3CCN(C)C3)cc12)c1ccc2c(c1)S(=O)(=O)CCC2`, for which the inhibition in data set [1] is 4%; in [2] it was -10%; in data set [3], 7%; in data set [4], -3%; in data set [5], -7%; in [6] it was 2%. Moreover, the inhibition in data set [7] amounted to 17%; in data set [8], 7%; in data set [9], 14%; in [11], 4%; in [12], 4%; in data set [13], 37%. The Inhibition in data set [10] is given as -6%.
For `CNCc1cc(-c2cc3c(N[C@@H](c4ccc5c(c4)S(=O)(=O)CCC5)C(C)C)ncnc3[nH]2)co1`, the inhibition in data set [1] is -4%; in data set [2], 3%; in data set [4] it was 14%; in data set [5], -9%; in data set [6], -3%; in data set [7], 47%. Besides, the inhibition was -5% in [8]; 6% in data set [9]; 24% in [11]; -5% in data set [12]; 43% in data set [13]. Also, in data set [10], the Inhibition is listed as -3%.
On to `COc1ccc([C@H](Cc2nnn[nH]2)NC(=O)c2ncnc3[nH]ccc23)cc1`, for which the inhibition in data set [1] was -3%; in data set [2], -8%; in data set [3], -5%; in [5], -4%; in data set [6], -4%; in data set [7], -4%. The inhibition in data set [8] was -3%; in [9], 5%; in [11], -1%; in [12], 62%; in [13], 41%. In data set [10], the Inhibition is on record as -22%.
`CC(C)[C@@H](Nc1ncnc2[nH]c(-c3cnn(C)c3C#N)cc12)c1ccc2c(n1)OCCO2`: the inhibition in data set [1] is -2%; in data set [2], 14%; in [3], 20%; in data set [4], 10%; in data set [5], 3%; in data set [6], 0%. For the same compound, the inhibition in data set [7] is 8%; in data set [8] it was 77%; in data set [9], 22%; in data set [11] it was -7%; in data set [12] it was 37%; in data set [13], 44%. For the same compound, the Inhibition in [10] came to 10%.
With `CC(C)[C@H](Nc1ncnc2[nH]ccc12)c1ccc2c(c1)S(=O)(=O)CCC2`, the inhibition in data set [1] is 11%; in [3] it was -2%; in data set [4], -4%; in data set [6] it was -3%; in [7], 19%; in data set [8], 8%. Further, the inhibition in data set [9] was determined as 12%; in data set [11], 23%; in [12], 29%; in data set [13], 36%. Besides, in data set [10], the Inhibition came out at 12%.
As to `CC(C)[C@H](Nc1ncnc2[nH]c(-c3cnn(C)c3C#N)cc12)c1ccc2c(n1)OCCO2`, the inhibition in data set [1] is 11%; in [2] it was 46%; in [3] it was 1%; in [4], 27%; in [5] it was -7%; in data set [6], 5%. Further, the inhibition in [7] is 7%; in data set [8] it was 15%; in data set [9] it was 43%; in [11], -2%; in data set [12] it was 37%; in data set [13] it was 70%. Further, the Inhibition in [10] is given as 9%.
Consider `CNC(=O)Cn1cc(-c2cc3c(N[C@@H](c4ccc5c(c4)S(=O)(=O)CCC5)C(C)C)ncnc3[nH]2)cn1`, for which the inhibition in [1] is 5%; in [2], -10%; in data set [3], -4%; in [4], 1%; in data set [6] it was -5%; in data set [7] it was 9%. In addition, the inhibition is 3% in [8]; 13% in data set [9]; 27% in data set [11]; -9% in [12]; 41% in data set [13]. The Inhibition in data set [10] is recorded as -1%.
Consider `Cc1nn(C)cc1-c1cc2c(N[C@H](c3ccc4c(c3)S(=O)(=O)CCC4)C(C)C)ncnc2[nH]1`, for which the inhibition was 1% in data set [1]; 0% in [2]; -8% in data set [3]; 3% in data set [4]; 0% in data set [6]; 11% in [7]. The inhibition in data set [8] came out at 28%; in data set [9] it was 10%; in [11] it was 23%; in data set [12], 46%; in data set [13] it was 43%. Moreover, the Inhibition in data set [10] is 12%.
For `C[C@H](C(=O)O)[C@@H](NC(=O)c1ncnc2[nH]ccc12)c1ccc(Br)cc1`, the inhibition in data set [1] is -5%; in [3], 6%; in [4], -8%; in [5], -1%; in [6], -8%; in [7], -1%. Moreover, the inhibition in data set [8] is -10%; in [9] it was 2%; in [11], 7%; in [12], 52%; in data set [13] it was 30%. The Inhibition in data set [10] is on record as -12%.
